Measured values taken from US20230019491A1, “PYRIMIDINE TBK/IKKe INHIBITOR COMPOUNDS AND USES THEREOF” (Merck Patent GmbH, priority 2017, published 2023).
Counter-ions that a name gives are not always drawn.

Experiments:
[1] = target: T1, TBK1 (Homo sapiens, UniProt Q9UHD2); test: TBK biochemical assay; details: 10 point 1:4 dose response, 30 uM top concentration, 90 min at 25° C., LabChip EZ Reader II; read-out: TBK1_IC50
T1 sequence (Q9UHD2 1-729): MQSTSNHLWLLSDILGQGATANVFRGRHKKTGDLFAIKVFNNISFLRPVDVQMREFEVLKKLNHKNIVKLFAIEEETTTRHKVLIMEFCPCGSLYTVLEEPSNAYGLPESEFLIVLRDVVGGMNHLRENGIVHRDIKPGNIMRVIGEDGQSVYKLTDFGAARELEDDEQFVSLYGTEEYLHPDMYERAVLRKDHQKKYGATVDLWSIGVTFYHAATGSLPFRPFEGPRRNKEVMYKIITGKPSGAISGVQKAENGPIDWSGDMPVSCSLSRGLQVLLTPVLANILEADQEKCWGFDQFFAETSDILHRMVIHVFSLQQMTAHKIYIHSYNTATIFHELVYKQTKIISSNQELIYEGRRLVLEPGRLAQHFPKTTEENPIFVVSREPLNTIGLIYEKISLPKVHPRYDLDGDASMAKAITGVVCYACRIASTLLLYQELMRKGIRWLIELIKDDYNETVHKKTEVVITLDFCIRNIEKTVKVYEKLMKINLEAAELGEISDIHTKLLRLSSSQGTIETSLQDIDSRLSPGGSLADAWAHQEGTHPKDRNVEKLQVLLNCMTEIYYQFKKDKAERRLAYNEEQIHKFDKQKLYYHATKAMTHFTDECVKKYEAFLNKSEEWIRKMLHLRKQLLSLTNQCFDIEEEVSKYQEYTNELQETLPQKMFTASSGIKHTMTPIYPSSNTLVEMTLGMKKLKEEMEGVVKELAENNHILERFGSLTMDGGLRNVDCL
Method: (§1) Test compounds were transferred into Labcyte polypropylene 384 well plates (P055-25) and diluted to 3 mM using DMSO. […] 100 uM of a reference compound (1 uM final high concentration). Backfilling was performed if necessary so that all wells contain 1% DMSO final:
(§2) add 75 nl DMSO/well into columns 1, 2 and 24 using Labcyte Echo. add 75 nl 1.0 mM staurosporine/well into column 23 using Labcyte Echo ([…]) add 4.5 ul enzyme/well using multidrop dispenser add 3 ul substrate/well using multidrop dispenser incubate at 25° C. in Heidolph incubator for 90 min. add 7.5 ul 2× stop buffer using multidrop dispenser read on labchip ez reader II using TBK1.job
(§3) Raw data files were opened in the Caliper LabChip Reviewer program (Version 3.0.265.0 SP2) and peak assignments were adjusted to reflect “substrate first” with the software's post-run analysis options. A spline-fit baseline was applied using the software's analysis algorithm.

[2] = target: T2, IKKε (Homo sapiens, UniProt Q14164); test: IKKε biochemical assay; details: 10 point 1:4 dose response, 30 uM top concentration, 90 min at 25° C., LabChip EZ Reader II; read-out: IKKε_IC50
T2 sequence (Q14164 1-716): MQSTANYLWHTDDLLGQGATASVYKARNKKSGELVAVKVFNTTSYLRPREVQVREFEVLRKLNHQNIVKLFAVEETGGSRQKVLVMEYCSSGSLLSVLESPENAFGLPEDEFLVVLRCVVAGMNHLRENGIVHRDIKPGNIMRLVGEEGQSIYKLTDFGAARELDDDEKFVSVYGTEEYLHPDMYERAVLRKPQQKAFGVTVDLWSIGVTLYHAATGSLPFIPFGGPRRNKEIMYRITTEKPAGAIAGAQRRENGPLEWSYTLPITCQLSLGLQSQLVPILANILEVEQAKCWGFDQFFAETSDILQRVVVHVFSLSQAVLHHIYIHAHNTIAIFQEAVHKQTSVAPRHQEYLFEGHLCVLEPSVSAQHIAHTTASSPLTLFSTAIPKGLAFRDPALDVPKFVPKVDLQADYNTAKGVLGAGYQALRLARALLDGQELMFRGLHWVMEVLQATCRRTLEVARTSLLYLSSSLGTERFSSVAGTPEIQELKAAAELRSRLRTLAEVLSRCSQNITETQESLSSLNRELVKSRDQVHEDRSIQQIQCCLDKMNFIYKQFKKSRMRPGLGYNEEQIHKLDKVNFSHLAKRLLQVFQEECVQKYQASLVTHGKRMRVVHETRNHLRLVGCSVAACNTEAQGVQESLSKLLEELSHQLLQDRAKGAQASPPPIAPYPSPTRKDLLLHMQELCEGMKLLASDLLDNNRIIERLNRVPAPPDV
Method: as §1
as §2, with “C.” for “C. in Heidolph incubator”, “buffer” for “buffer using multidrop dispenser”, “IKKε.” for “TBK1.job”
as §3

Row | Structure (SMILES) | IC50 [1] | IC50 [2]
1 | COc1nc(Nc2nccc(-c3ccc(OC4(C)CCNCC4)c(C#N)c3)n2)ccc1N1CCN(C2COC2)CC1 [Example 267, 5-{2-[6-Methoxy-5-(4-oxetan-3-yl-piperazin-1-yl)-pyridin-2-ylamino]-pyrimidin-4-yl}-2-(4-methyl-piperidin-4-yloxy)-benzonitrile] | < 100 nM | < 100 nM
2 | COc1cc(Nc2nccc(-c3cc(C#N)c(OC4CCOCC4)cn3)n2)ncc1N1CCN(C)CC1 [Example 55, 2-(2-[[4-methoxy-5-(4-methylpiperazin-1-yl)pyridin-2-yl]amino]pyrimidin-4-yl)-5-(oxan-4-yloxy)pyridine-4-carbonitrile hydrochloride] | > 5000 nM | > 5000 nM
3 | COc1nc(Nc2nccc(-c3ccc(OC4CCN(C(=O)[C@H](C)CO)CC4(F)F)c(C#N)c3)n2)ccc1N1CCN(C2COC2)CC1 (stereo partly drawn) [Example 257, 2-[3,3-Difluoro-1-((R)-3-hydroxy-2-methyl-propionyl)-piperidin-4-yloxy]-5-{2-[6-methoxy-5-(4-oxetan-3-yl-piperazin-1-yl)-pyridin-2-ylamino]-pyrimidin-4-yl}-benzonitrile] | < 100 nM | < 100 nM
4 | C[C@@H](O)C(=O)N1CCC(Oc2ccc(-c3ccnc(Nc4ccncc4)n3)cc2C#N)C(F)(F)C1 (stereo partly drawn) [Example 208, 2-([3,3-difluoro-1-[(2R)-2-hydroxypropanoyl]piperidin-4-yl]oxy)-5-[2-[(pyridin-4-yl)amino]pyrimidin-4-yl]benzonitrile] | < 100 nM | < 100 nM
5 | COc1nc(Nc2nccc(-c3cc(C#N)c(OC4CCN(C(=O)[C@H](C)O)CC4(F)F)cn3)n2)ccc1N1CCN(C2COC2)CC1 (stereo partly drawn) [Example 303, 5-([33-difluoro-1-[(2S)-2-hydroxypropanoyl]piperidin-4-yl]oxy)-2-[2-([6-methoxy-5-[4-(oxetan-3-yl)piperazin-1-yl]pyridin-2-yl]amino)pyrimidin-4-yl]pyridine-4-carbonitrile] | 100 to 1000 nM | 1000 to 5000 nM
6 | COc1nc(Nc2nccc(-c3ccc(OC4CCN(C(=O)[C@H](C)O)CC4(F)F)c(C#N)n3)n2)ccc1N1CCN(C2COC2)CC1 (stereo partly drawn) [Example 304, 3-([3,3-difluoro-1-[(2S)-2-hydroxypropanoyl]piperidin-4-yl]oxy)-6-[2-([6-methoxy-5-[4-(oxetan-3-yl)piperazin-1-yl]pyridin-2-yl]amino)pyrimidin-4-yl]pyridine-2-carbonitrile] | < 100 nM | < 100 nM
7 | COc1nc(Nc2nccc(-c3ccc(O[C@H]4CCN(C(=O)[C@H](C)O)CC4(F)F)c(C#N)c3)n2)ccc1N1CCN(C2COC2)CC1 [Example 121, 2-[[(4S)-3,3-difluoro-1-[(2S)-2-hydroxypropanoyl]piperidin-4-yl]oxy]-5-[2-([6-methoxy-5-[4-(oxetan-3-yl)piperazin-1-yl]pyridin-2-yl]amino)pyrimidin-4-yl]benzonitrile] | < 100 nM | 

Now from value to compound:

Row | IC50 [1] | IC50 [2] | Structure (SMILES)
8 | < 100 nM | < 100 nM | COc1nc(Nc2nccc(-c3ccc(OC4CCN(C(=O)[C@H](C)O)CC4)c(C#N)c3)n2)ccc1N1CCN(C2COC2)CC1 [Example 187, 2-([1-[(2S)-2-hydroxypropanoyl]piperidin-4-yl]oxy)-5-[2-([6-methoxy-5-[4-(oxetan-3-yl)piperazin-1-yl]pyridin-2-yl]amino)pyrimidin-4-yl]benzonitrile]
9 | < 100 nM | < 100 nM | COc1nc(Nc2nccc(-c3ccc(OC4CCNCC4(F)F)c(C#N)c3)n2)ccc1C(=O)N(C)C (stereo not drawn) [Example 76, 6-[(4-[3-cyano-4-[(3,3-difluoropiperidin-4-yl)oxy]phenyl]pyrimidin-2-yl)amino]-2-methoxy-N,N-dimethylpyridine-3-carboxamide]
10 | < 100 nM | < 100 nM | COc1nc(Nc2nccc(-c3ccc(OC4CCN(C(=O)CO)CC4)c(C#N)c3)n2)ccc1N1CCN(C)CC1 [Example 90, 2-[[1-(2-hydroxyacetyl)piperidin-4-yl]oxy]-5-(2-[[6-methoxy-5-(4-methylpiperazin-1-yl)pyridin-2-yl]amino]pyrimidin-4-yl)benzonitrile]
11 | < 100 nM | < 100 nM | COc1nc(Nc2nccc(-c3ccc(O[C@H]4CCN(C(=O)[C@H](C)O)C[C@H]4F)c(C#N)c3)n2)ccc1N1CCN(C)CC1 [Example 201, 2-[[(3R,4S)-3-fluoro-1-[(2S)-2-hydroxypropanoyl]piperidin-4-yl]oxy]-5-(2-[[6-methoxy-5-(4-methylpiperazin-1-yl)pyridin-2-yl]amino]pyrimidin-4-yl)benzonitrile]
12 | < 100 nM | < 100 nM | COc1nc(Nc2nccc(-c3ccc(OC4CCN(C)CC4(F)F)c(C#N)c3)n2)ccc1N1CCN(C)CC1 (stereo not drawn) [Example 98, 2-[(3,3-difluoro-1-methylpiperidin-4-yl)oxy]-5-(2-[[6-methoxy-5-(4-methylpiperazin-1-yl)pyridin-2-yl]amino]pyrimidin-4-yl)benzonitrile]
13 | 100 to 1000 nM | 100 to 1000 nM | CN(C)C(=O)c1ccc(Nc2nccc(-c3ccc(OC4CCOCC4)c(C#N)c3)n2)nc1 [Example 22, 6-([4-[3-cyano-4-(oxan-4-yloxy)phenyl]pyrimidin-2-yl]amino)-N,N-dimethylpyridine-3-carboxamide]
14 | < 100 nM | < 100 nM | COc1nc(Nc2nccc(-c3ccc(OC4CCN(C(=O)[C@H](C)O)CC4(F)F)c(C#N)c3)n2)ccc1N1CCN(C2COC2)C[C@H]1C (stereo partly drawn) [Example 132, 2-[3,3-Difluoro-1-((S)-2-hydroxy-propionyl)-piperidin-4-yloxy]-5-{2-[6-methoxy-5-((R)-2-methyl-4-oxetan-3-yl-piperazin-1-yl)-pyridin-2-ylamino]-pyrimidin-4-yl}-benzonitrile]
15 | < 100 nM | < 100 nM | COc1nc(Nc2nccc(-c3ccc(OC4CCOCC4)c(C#N)c3)n2)ccc1N1CCN(C2COC2)CC1 [Example 169, 5-{2-[6-Methoxy-5-(4-oxetan-3-yl-piperazin-1-yl)-pyridin-2-ylamino]-pyrimidin-4-yl}-2-(tetrahydro-pyran-4-yloxy)-benzonitrile]
16 | < 100 nM | < 100 nM | COc1nc(Nc2nccc(-c3ccc(O[C@@H]4CCN(C(=O)CO)CC4(F)F)c(C#N)c3)n2)ccc1N1CCN(C)CC1 [Example 101, 2-[[(4R)-3,3-difluoro-1-(2-hydroxyacetyl)piperidin-4-yl]oxy]-5-(2-[[6-methoxy-5-(4-methylpiperazin-1-yl)pyridin-2-yl]amino]pyrimidin-4-yl)benzonitrile]
17 | < 100 nM | < 100 nM | COc1nc(Nc2nccc(-c3ccc(OC4CCOCC4)c(C#N)c3)n2)ccc1C(=O)N(C)C [Example 1, 6-([4-[3-cyano-4-(oxan-4-yloxy)phenyl]pyrimidin-2-yl]amino)-2-methoxy-N,N-dimethylpyridine-3-carboxamide]
